Structures can show the parent of a compound that is named as a salt.

In this assay the test system is human umbilical cord endothelial cells (HUVEC). As to the kind of experiment: HUVEC proliferation assay and/or HUVEC adhesion assay. It counts as cell-based. The settings on record: bound stated for the listed compounds. Here is the method: HUVEC Proliferation Assay
1. Coat 3 NUNC polystyrene 96 well plate (VWR, 62409-120; lids 62409-118) with vitronectin (purified internally), fibronectin (Collaborative Biomed 40008A) or fibrinogen (Calbiochem 341578) 50 ng/well in 50 μl PBS, 1 hr @ RT.
a. rinse with 5 mls PBS (no Ca, Mg)
3. Rinse vitronectin plates 1× in 200 μl PBS −/− and add 3000 cells per well in 100 ul growth medium (EBM2 (Clonetics, CC-3156)+EGM2 bullet kit (CC-4176)).
4. Incubate 24 hours at 37° C. to allow attachment.
5. Remove growth medium and add 100 μl growth medium+drugs (25 μM and down by five fold steps in DMSO-0.25% final DMSO concentration).
6. Incubate for 3 days changing media (+drugs).
7. Remove non-adherent cells on Friday with Raindance 12 well plate washer.
8. Wash twice with 200 μl PBS (+Mg & Ca).
9. Tap out excess liquid.
10. Freeze @ −70° C. for 30 minutes.
11. Thaw plate and add 150 μl CyQuant fluorescent dye (Molecular Probes C-7026).
12. Read after 4 minutes @ 485λ (excitation), 530λ (emission).
1. Coat 2 NUNC polystyrene 96 well plates (VWR, 62409-120; lids 62409-118) with 50 μl vitronectin (purified internally) at 50 ng/well in PBS (−Mg & Ca), for 1 hour @ 37° C.
2. Rinse with PBS & block with 150 μl PBS/1% BSA (Sigma A8918), 1 hour at @ 37° C.
3. Prepare drug dilutions:
a. 400 fold concentrate in 100% DMSO
b. 0.25% DMSO [assay]final
c. 10 mM & down (25 μMfinal & down)
d. dilute 1 μl of 400 fold conc into 200 μl adhesion media
a. rinse with 5 ml PBS (no Ca, Mg)
6. Rinse blocking buffer from assay plate and add 50 μl of drug dilutions.
7. Resuspend cells in adhesion media, count and add 2e4 cells/well in 50 μl (4e5/ml).
8. Incubate 60 minutes @ 37° C.
9. Remove non-adherent cells with Raindance 12 well plate washer.
10. Wash twice with 200 μl PBS (+Mg & Ca)
11. Tap out excess liquid.
12. Freeze @ −70° C. for 30 minutes to overnite.
13. Thaw plate and add 150 μl CyQuant fluorescent dye (Molecular Probes C-7026).
14. Read after 2-5 minutes @ 485λ (excitation), 530λ (emission).
Adhesion medium: Media 199 (which contains […] and 0.8 mM MgSO4), 0.5% BSA, 10 mM HEPES, 1 mM MgCl2, and 1 mM MnCl2

As to `O=C(O)CC1CCN(C(=O)Nc2cccc(CNc3ccccn3)c2)Cc2ccccc21` (centres unmarked) [Example 8, 2-(2-(N-(3-(2-pyridylamino)methylphenyl)carbamoyl)-1H,3H,4H,5H-benzo[e]azapin-5-yl)acetic acid], the 50% inhibitory concentration (IC50) – broadly, the concentration at which inhibition is half-maximal – is no more than 30 µM.

For `O=CNc1ccc2c(c1)CN(C(=O)NCCCc1ccc3c(n1)NCCC3)CCC2CC(=O)O` (centres unmarked) [Example 83, 2-{8-Carbonylamino-2-[N-(3-(1,2,3,4-tetrahydropyridino[2,3-b]pyridin-7-yl)propyl)carbamoyl]-1H,3H,4H,5H-benzo[e]azepin-5-yl}acetic acid], the IC50 was no more than 30 µM.

`O=C(O)CC1CCN(C(=O)NCCCc2ccc3c(n2)NCCC3)Cc2cc(F)ccc21` (centres unmarked) [Example 24, 2-(8-fluoro-2-(N-(3-(1,2,3,4-tetrahydropyridino [2,3,b]pyridin-7-yl)propyl)carbamoyl)-1H,3H,4H,5H-benzo[e]azaperhydroepin-5-yl)acetic acid] came in with a 50% inhibitory concentration (IC50) of no more than 30 µM. In turn, `O=C(O)CC1CCN(C(=O)NCCCc2ccc3c(n2)NCCC3)Cc2ccccc21` (centres unmarked) [Example 13, 2-(2-(N-(3-(1,2,3,4-tetrahydropyridino(2,3-b)pyridin-7-yl)prop-1-yl)carbamoyl)-1H,3H,4H,5H-benzo[e]azapin-5-yl)acetic acid] had a half-inhibitory concentration (IC50) of no more than 30 µM. As for `CC(C)N(CCc1ccc2c(n1)NCCC2)C(=O)c1cn2c(n1)Cc1ccccc1C(CC(=O)O)C2` (centres unmarked) [Example 64, 2-{2-[N-(methylethyl)-N-(2-(1,2,3,4-tetrahydropyridino[2,3-b]pyridin-7-yl)ethyl)carbamoyl]-4H,5H,10H-benzo[d]imidazolo[1,2-a]azepin-5-yl}acetic acid], the figure is no more than 30 µM. `O=C(O)CC1CCN(C(=O)NCCCc2ccc3c(n2)NCCC3)Cc2cc(Cl)ccc21` (centres unmarked) [Example 78, 2-{8-Chloro-2-[N-(3-(1,2,3,4-tetrahydropyridino[2,3-b]pyridin-7-yl)propyl)carbamoyl]-1H,3H,4H,5H-benzo[e]azepin-5-yl}acetic acid] showed an IC50 of no more than 30 µM. Then `N#C/N=C(\NCCCc1ccc2c(n1)NCCC2)N1CCC(CC(=O)O)c2ccccc2C1` (centres unmarked) [Example 42], with no more than 30 µM. As for `CN(CCCCNc1ccccn1)C(=O)N1CCC(CC(=O)O)c2ccccc2C1` (centres unmarked) [Example 5, 2-(2-(N-methyl—N-(4-(2-pyridylamino)but-1-yl)carbamoyl)-1H,3H,4H,5H-benzo[e]azapin-5-yl)acetic acid], the figure is no more than 30 µM; as for `O=C(O)CC1CN(C(=O)NCCCCCNc2ccccn2)CCc2ccccc21` (centres unmarked) [Example 29, 2-(3-{N-(5-(2-pyridylamino)pent-1-yl)carbamoyl}-1H,2H,4H,5H-benzo[d]azepinyl)acetic acid], no more than 30 µM; as for `O=C(O)CC1CCN(C(=O)NCCCc2ccc3c(n2)NCCC3)Cc2cc(-c3ccccc3)ccc21` (centres unmarked) [Example 73, 2-(8-phenyl-2-(N-(3-(1,2,3,4-tetrahydropyridino[2,3,b]pyridin-7-yl)propyl)carbamoyl)-1H,3H,4H,5H-benzo[e]azaperhydroepin-5-yl) acetic acid], no more than 30 µM. `O=C(O)CC1CCN(C(=O)NCCCc2ccc3c(n2)NCCC3)Cc2cc(OCc3ccccc3)ccc21` (centres unmarked) [Example 72] had a 50% inhibitory concentration (IC50) of no more than 30 µM. `O=C(O)CC1CN(C(=O)NCCCc2ccc3c(n2)NCCC3)CCc2ccccc21` (centres unmarked) [Example 30, 2-{3-(N-(3-(1,2,3,4-tetrahydropyridino[2,3-b]pyridin-7-yl)propyl)carbamoyl)-1H,2H,4H,5H-benzo[d]azepin-1-yl}acetic acid]: the half-inhibitory concentration (IC50) was no more than 30 µM. `O=C(O)C[C@@H]1CCN(C(=O)CCCc2ccc3c(n2)NCCC3)Cc2ccccc21` [Example 55] gave an IC50 of no more than 30 µM.

The compound `O=C(O)CC1CCN(C(=O)NCCCc2ccc3c(n2)NCCC3)Cc2cc(Br)ccc21` (centres unmarked) [Example 79, 2-{8-Bromo-2-[N-(3-(1,2,3,4-tetrahydropyridino[2,3-b]pyridin-7-yl)propyl)carbamoyl]-1H,3H,4H,5H-benzo[e]azepin-5-yl}acetic acid] registered a 50% inhibitory concentration (IC50) of no more than 30 µM. `CC(C)N(CCc1ccc2c(n1)NCCC2)C(=O)N1CCC(CC(=O)O)c2ccccc2C1` (centres unmarked) [Example 41, 2-{2-[N-(methylethyl)-N-(2-(1,2,3,4-tetrahydroyridino[2,3-b]pyridin-7-yl)ethyl)carbamoyl]-1H,3H,4H,5H-benzo[e]azepin-5-yl]acetic acid] yielded an IC50 of no more than 30 µM. `O=C(O)CC1CCN(C(=O)CNCCNc2ccccn2)Cc2ccccc21` (centres unmarked) [Example 16, 2-(2-(2-((2-(2-pyridylamino)ethyl)amino)acetyl)-1H,3H,4H,5H-benzo[e]azain-5-yl)acetic acid] registered an IC50 of no more than 30 µM. Then `O=C(O)CC1CCN(CC(=O)NCCCNc2ccccn2)Cc2ccccc21` (centres unmarked) [Example 19, 2-(2-((N-(3-(2-pyridylamino)prop-1-yl)carbamoyl)methyl)-1H,3H,4H,5H-benzo[e]azapin-5-yl)acetic acid], with no more than 30 µM. As for `O=C(O)CC1CCN(C(=O)NCCCNc2ccccn2)Cc2ccccc21` (centres unmarked) [Example 2, 2-(2-(N-(3-(2-pyridylamino)propyl)carbamoyl)-1H,3H,4H,5H-benzo[e]azain-5-yl)acetic acid], the figure is no more than 30 µM; as for `O=C(O)CC1CCN(C(=O)OCCCCNc2ccccn2)Cc2ccccc21` (centres unmarked) [Example 20, 2-(2-(4-(2-pyridylamino)but-1-oxycarbonyl)-1H,3H,4H,5H-benzo[e]azapin-5-yl)acetic acid], no more than 30 µM. As for `O=C(O)CC1CCN(C(=O)CNCCCCNc2ccccn2)Cc2ccccc21` (centres unmarked) [Example 18], the figure is no more than 30 µM; as for `Nc1cccc(CCCNC(=O)N2CCC(CC(=O)O)c3ccccc3C2)n1` (centres unmarked) [Example 11, 2-(2-(N-(3-(6-amino-2-pyridyl)prop-1-yl)carbamoyl)-1H,3H,4H,5H-benzo[e]azapin-5-yl)acetic acid Hydrochloride], no more than 30 µM; as for `CN(C)c1ccc2c(c1)CN(C(=O)NCCCc1ccc3c(n1)NCCC3)CCC2CC(=O)O` (centres unmarked) [Example 84, 2-{8-(Dimethylamino)-2-[N-(3-(1,2,3,4-tetrahydropyridino[2,3-b]pyridin-7-yl)propyl)carbamoyl]-1H,3H,4H,5H-benzo[e]azepin-5-yl}acetic acid], no more than 30 µM. `CS(=O)(=O)Nc1ccc2c(c1)CN(C(=O)NCCCc1ccc3c(n1)NCCC3)CCC2CC(=O)O` (centres unmarked) [Example 81, 2-{8-[(Methylsulfonyl)amino]-2-[N-(3-(1,2,3,4-tetrahydropyridino[2,3-b]pyridin-7-yl)Propyl)carbamoyl]-1H,3H,4H,5H-benzo[e]azepin-5-yl}acetic acid] yielded a concentration for half-maximal inhibition (IC50) of no more than 30 µM. As to `O=C(O)CC1CCN(C(=O)NCCCCCNc2ccccn2)Cc2ccccc21` (centres unmarked) [Example 4, 2-(2-(N-(5-(2-pyridylamino)pent-1-yl)carbamoyl)-1H,3H,4H,5H-benzo[e]azapin-5-yl)acetic acid], the IC50 was no more than 30 µM. As for `O=C(O)CC1CCN(C(=O)CCCc2ccc3c(n2)NCCC3)Cc2ccccc21` (centres unmarked) [Example 56, 2-[2-(4-(1,2,3,4-tetrahydropyridino[2,3-b]pyridin-7-yl)butanoyl)-1H,3H,4H,5H-benzo[e]azepin-5-yl]acetic acid], the figure is no more than 30 µM. Then `O=C(O)CC1CN(C(=O)CCCCCCNc2ccccn2)CCc2ccccc21` (centres unmarked) [Example 32, 2-{3-(7-(2-pyridylamino)heptanoyl)-1H,2H,4H,5H-benzo[d]azepin-1-yl}acetic acid], with no more than 30 µM; and `O=C(O)C[C@H]1CCN(C(=O)NCCCc2ccc3c(n2)NCCC3)Cc2ccccc21` [Example 52, 2-((5R)-2-(N-(3-(1,2,3,4-tetrahydropyridino(2,3-b)pyridin-7-yl)prop-1-yl)carbamoyl)-1H,3H,4H,5H-benzo[e]azapin-5-yl)acetic acid], with no more than 30 µM; and `Cc1cccc(NCCCCNC(=O)N2CCC(CC(=O)O)c3ccccc3C2)n1` (centres unmarked) [Example 9, 2-(2-(N-(4-((6-methyl-2-pyridyl)amino)but-1-yl)carbamoyl)-1H,3H,4H,5H-benzo[e]azapin-5-yl)acetic acid], with no more than 30 µM. Then `CN(CCCNc1ccccn1)C(=O)c1cn2c(n1)Cc1ccccc1C(CC(=O)O)C2` (centres unmarked) [Example 67, 2-(2-{N-methyl-N-[3-(2-pyridylamino)propyl]carbamoyl}-4H,5H,10H-benzo[d]imidazolo[1,2-a]azepin-5-yl)acetic acid], with no more than 30 µM.

The record behind these values is patent US6514964B1, “Fused cycloheptane and fused azacycloheptane compounds and their methods of use” (Amgen Inc., priority 1999, dated 2003).
